According to US11931322B2, “Solubilizate with curcumin and optionally at least one other active substance” (priority 2017, dated 2024):

Key:
Format in all cases: in vivo, Wistar rats
[1] = tested on: total antioxidant capacity (TAC); assay: Total antioxidant capacity (TAC) in the serum of arthritic rats; details: for TAC: serum of arthritic rats, n=8, mean ± SEM
Experimental: (§1) Prof. Dr. […] from the University of Cairo, Faculty of Pharmacy at the Institute for Pharmacology, performed studies on the anti-inflammatory effect of curcumin and combinations of curcumin with Boswellia or xanthohumol, in each case in the native form and in the solubilized form according to the disclosure. Anti-inflammatory markers and antioxidant capacity were determined. Female Wistar rats with a body weight between 150 and 200 g were exposed to adjuvant induced arthritis according to Pearson et al. (1956). At day 0, the animals were administered 0.1 ml of Freund's Adjuvant (FCA) in the right hind paw, by subplantar injection. The animals were randomly divided into 12 groups of 8 animals each. All extracts or solubilizates were administered orally once daily from day 0 to day 21 following the vaccination with the adjuvant. After day 21, the animals were killed and serum samples were prepared and stored at -80° C. Measurements were made of myeloperoxidase (MPO), C-reactive protein (CRP), total antioxidant capacity (TAC), and thiobarbituratic acid reactive substances (TBARS). Oxidative stress is one of the major factors contributing to joint destruction in rheumatoid arthritis (RA). An increase in the production of so-called “reactive oxygen species (ROS)” leads to a reduced supply of endogenous antioxidants and ultimately results in the destruction of cells. The neutrophil granulocytes released in the rheumatoid joint produce free oxygen radicals which cause increased formation of lipid peroxides manifesting in an increase in serum TBARS. Therefore, an increase in antioxidant status represented by an increase in TAC can be used as an indication of protection against the development of degenerative inflammatory processes. There is an inverse relationship between the levels of TAC and TBARS, a high level of antioxidant capacity TAC corresponds to a low TBARS concentration. The table contains data on the effect of curcumin and Boswellia in native and in solubilized form, administered either alone or in combination with diclofenac in a dose of 3 mg per kg body weight once daily for 21 days, on the antioxidant capacity TAC and the thiobarbituric acid reactive substances TBARS in the serum of arthritic rats (n=8). Indicated are mean values±standard error of the mean (SEM).

[2] = tested on: thiobarbituric acid reactive substances (TBARS); assay: Thiobarbituric acid reactive substances (TBARS) in the serum of arthritic rats; details: for TBARS: serum of arthritic rats, n=8, mean ± SEM
Experimental: as §1

[3] = tested on: C-reactive protein (CRP); assay: Serum C-reactive protein (CRP) in adjuvant-induced arthritic rats; details: 5 and 10 mg/kg, FIG. 1a
Experimental: (§2) Prof. Dr. […] from the University of Cairo, Faculty of Pharmacy at the Institute for Pharmacology, performed studies on the anti-inflammatory effect of curcumin and combinations of curcumin with Boswellia or xanthohumol, in each case in the native form and in the solubilized form according to the disclosure. Anti-inflammatory markers and antioxidant capacity were determined. Female Wistar rats with a body weight between 150 and 200 g were exposed to adjuvant induced arthritis according to Pearson et al. (1956). At day 0, the animals were administered 0.1 ml of Freund's Adjuvant (FCA) in the right hind paw, by subplantar injection. The animals were randomly divided into 12 groups of 8 animals each. Group 1 was the control group. Group 2 received diclofenac as a reference drug in a dose of 3 mg/kg body weight. Group 3 received native curcumin in a dose of 5 mg/kg body weight. Group 4 received curcumin solubilized according to the disclosure in a dose of 5 mg/kg body weight. Group 5 received native curcumin in a dose of 10 mg/kg body weight, and Group 6 received curcumin solubilized in the same dose. Group 7 received native xanthohumol in a dose of 5 mg/kg body weight, and Group 8 received solubilized xanthohumol in the same dose. Group 9 received a mixture of native curcumin in a dose of 5 mg/kg body weight and native Boswellia extract in a dose of 10 mg/kg body weight. […]

[4] = tested on: myeloperoxidase (MPO); assay: Serum myeloperoxidase (MPO) in adjuvant-induced arthritic rats; details: both dosages (5 and 10 mg/kg), FIG. 2
Experimental: as §2

[5] = 10 mg/kg once daily for 21 days
[6] = arthritic rats, both dosages considered

Compound | TAC ([1]; 3 mg/kg once daily for 21 days) [nmol/µL] | TBARS ([2]; 3 mg/kg once daily for 21 days) [nmol/L] | TAC ([1]; 5 mg/kg once daily for 21 days) [nmol/µL] | TAC [1, 5] [nmol/µL] | effect on TAC (in words) [1, 6] | effect on rat serum CRP levels (in words) [3] | TBARS ([2]; 5 mg/kg once daily for 21 days) [nmol/L] | TBARS [2, 5] [nmol/L] | effect on the TBARS level (in words) [2, 6] | effect on MPO concentration (in words) [4]
O=C(O)Cc1ccccc1Nc1c(Cl)cccc1Cl [Diclofenac, diclofenac] | 82.08 ± 2.96 | 7.93 ± 0.84 | – | – | – | – | – | – | – | –
COc1cc(/C=C/C(=O)CC(=O)/C=C/c2ccc(O)c(OC)c2)ccc1O [Native curcumin, curcumin] | – | – | 60.31 ± 3.25 | 68.41 ± 1.09 | no significant effect | inhibited rat serum CRP levels in a dose-dependent manner | 11.64 ± 0.39 | 13.18 ± 0.46 | no significant effect | no effect on the MPO levels
